Reference: US20260256792A1, “TREATMENT OF CHRONIC SPONTANEOUS URTICARIA BY ADMINISTERING (R)-2-[3-[4-AMINO-3-(2-FLUORO-4-PHENOXY-PHENYL)PYRAZOLO[3,4-D]PYRIMIDIN-1-YL]PIPERIDINE-1-CARBONYL]-4-METHYL-4-[4-(OXETAN-3-YL)PIPERAZIN-1-YL]PENT-2-ENENITRILE” (priority 2023, published 2026)

Test system: moderate-to-severe chronic spontaneous urticaria (CSU)
Assay: Phase 2 CSU study: urticaria activity score over 7 days (UAS7)
Type: in vivo, human
Parameters: key to UAS7 Median / UAS7 Change from baseline Median / UAS7 change from baseline, Q1 / UAS7 change from baseline, Q3 / UAS7 change from baseline, Max / UAS7 Change from baseline LS Mean (SE): UAS7 points; daily UAS score ranges 0–6 points/day, over 7 days
Source text: The study comprises a 12 week, randomized, double-blind, placebo-controlled, multi-center, dose-ranging efficacy and safety phase, followed by a 40 week open label extension (OLE) phase (see FIG. 1). The study consists of three phases and an optional OLE phase. […] Clinically, CSU is characterized by the spontaneous and recurrent appearance of pruritic hives. The proposed primary endpoints were the UAS7 at Week 12 in EU and EU reference countries and the ISS7 in the US. Regardless of where a participant was from, all assessments were the same. The UAS7 score is a composite score containing both the HSS7 and the ISS7. This allowed a global assessment of the two key components of urticaria: hives and itch. […] The UAS is a validated PRO measure. […] The daily UAS scores range from 0 to 6 point/day. […] Patients were to complete the UAS using the e-diary. […] The following secondary endpoints were to be analyzed using the same approach as for the primary endpoint: • Change from baseline in UAS7 at Week 4 • Change from baseline in UAS7 at Week 12 (for US and US reference countries) • Change from baseline in ISS7 at Week 12 (except US and US reference countries) • Change from baseline in HSS7 at Week 12 The following responder secondary endpoints were to be analyzed using the Cochran-Mantel-Haenszel test adjusted by region: • Proportion of participants with UAS7<6 at Week 12 • Proportion of participants with UAS7=0 at Week 12 Participants who received selected prohibited medications and/or rescue medications were to be considered as non-responders for time points after the medication usage. For other participants, all available data including those collected during the off-treatment period were to be used to determine the responder/non-responder status. Missing data were to be considered as non-responders.

[1] = Omalizumab-Naïve Population, 400 mg BID, Week 1
[2] = Omalizumab-Naïve Population, 400 mg BID, Week 2
[3] = Omalizumab-Naïve Population, 400 mg BID, Week 3
[4] = Omalizumab-Naïve Population, 400 mg BID, Week 4
[5] = Omalizumab-Naïve Population, 400 mg BID, Week 12
[6] = Omalizumab-Naïve Population, 400 mg QPM, Week 1
[7] = Omalizumab-Naïve Population, 400 mg QPM, Week 2
[8] = Omalizumab-Naïve Population, 400 mg QPM, Week 3

CC(C)(C=C(C#N)C(=O)N1CCC[C@@H](n2nc(-c3ccc(Oc4ccccc4)cc3F)c3c(N)ncnc32)C1)N1CCN(C2COC2)CC1 [rilzabrutinib, (R)-2-[3-[4-amino-3-(2-fluoro-4-phenoxy-phenyl)pyrazolo[3,4-d]pyrimidin-1-yl]piperidine-1-carbonyl]-4-methyl-4-[4-(oxetan-3-yl)piperazin-1-yl]pent-2-enenitrile]
UAS7 Post-baseline Mean (SD) (Omalizumab-Naïve Population with Outlier Removed, 400 mg QPM, Week 2): 23.44 (8.97)
UAS7 Post-baseline Mean (SD) (Omalizumab-Naïve Population with Outlier Removed, 400 mg QPM, Week 3): 22.01 (9.00)
UAS7 Post-baseline Mean (SD) (Omalizumab-Naïve Population with Outlier Removed, 400 mg QPM, Week 4): 21.92 (8.82)
UAS7 Post-baseline Mean (SD) (Omalizumab-Naïve Population with Outlier Removed, 400 mg QPM, Week 5): 20.63 (9.18)
UAS7 Post-baseline Mean (SD) (Omalizumab-Naïve Population with Outlier Removed, 400 mg QPM, Week 6): 20.21 (10.42)
UAS7 Post-baseline Mean (SD) (Omalizumab-Naïve Population with Outlier Removed, 400 mg QPM, Week 7): 21.11 (10.03)
UAS7 Post-baseline Mean (SD) (Omalizumab-Naïve Population with Outlier Removed, 400 mg QPM, Week 9): 20.25 (10.25)
UAS7 Post-baseline Mean (SD) (Omalizumab-Naïve Population with Outlier Removed, 400 mg QPM, Week 10): 20.27 (10.69)
UAS7 Post-baseline Mean (SD) (Omalizumab-Naïve Population with Outlier Removed, 400 mg QPM, Week 11): 21.17 (11.16)
UAS7 Post-baseline Mean (SD) (Omalizumab-Naïve Population with Outlier Removed, 400 mg TID, Week 1): 18.29 (9.93)
UAS7 Post-baseline Mean (SD) (Omalizumab-Naïve Population with Outlier Removed, 400 mg TID, Week 2): 16.03 (10.59)
UAS7 Post-baseline Mean (SD) (Omalizumab-Naïve Population with Outlier Removed, 400 mg TID, Week 3): 15.20 (9.97)
UAS7 Post-baseline Mean (SD) (Omalizumab-Naïve Population with Outlier Removed, 400 mg TID, Week 4): 14.65 (9.61)
UAS7 Post-baseline Mean (SD) (Omalizumab-Naïve Population with Outlier Removed, 400 mg TID, Week 5): 13.41 (10.60)
UAS7 Post-baseline Mean (SD) (Omalizumab-Naïve Population with Outlier Removed, 400 mg TID, Week 6): 14.10 (11.23)
UAS7 Post-baseline Mean (SD) (Omalizumab-Naïve Population with Outlier Removed, 400 mg TID, Week 7): 13.54 (9.34)
UAS7 Post-baseline Mean (SD) (Omalizumab-Naïve Population with Outlier Removed, 400 mg TID, Week 8): 13.36 (9.81)
UAS7 Post-baseline Mean (SD) (Omalizumab-Naïve Population with Outlier Removed, 400 mg TID, Week 9): 12.57 (9.72)
UAS7 Post-baseline Mean (SD) (Omalizumab-Naïve Population with Outlier Removed, 400 mg TID, Week 10): 12.61 (9.89)
UAS7 Post-baseline Mean (SD) (Omalizumab-Naïve Population with Outlier Removed, 400 mg TID, Week 12): 11.00 (9.90)
UAS7 % Change difference for rilzabrutinib vs. placebo LS Mean (95% CI) [1]: −25.01%
UAS7 % Change from baseline LS Mean (SE) [1]: −34.48 (5.64) %
UAS7 Change difference for rilzabrutinib vs. placebo LS Mean (95% CI) [1]: −6.24
UAS7 Change from baseline LS Mean (SE) [1]: −9.79 (1.58)
UAS7 Post-baseline Mean (SD) [1]: 19.77 (11.32)
UAS7 % Change difference for rilzabrutinib vs. placebo LS Mean (95% CI) [2]: −18.28%
UAS7 % Change from baseline LS Mean (SE) [2]: −36.05 (5.50) %
UAS7 Change difference for rilzabrutinib vs. placebo LS Mean (95% CI) [2]: −4.55
UAS7 Change from baseline LS Mean (SE) [2]: −10.44 (1.57)
UAS7 Post-baseline Mean (SD) [2]: 19.59 (10.86)
UAS7 % Change difference for rilzabrutinib vs. placebo LS Mean (95% CI) [3]: −20.16%
UAS7 % Change from baseline LS Mean (SE) [3]: −40.11 (5.66) %
UAS7 Change difference for rilzabrutinib vs. placebo LS Mean (95% CI) [3]: −5.04
UAS7 Change from baseline LS Mean (SE) [3]: −11.96 (1.67)
UAS7 Post-baseline Mean (SD) [3]: 17.71 (11.91)
UAS7 % Change difference for rilzabrutinib vs. placebo LS Mean (95% CI) [4]: −23.20%
UAS7 % Change from baseline LS Mean (SE) [4]: −43.62 (5.88) %
UAS7 Change difference for rilzabrutinib vs. placebo LS Mean (95% CI) [4]: −5.82
UAS7 Change from baseline LS Mean (SE) [4]: −12.89 (1.73)
UAS7 Post-baseline Mean (SD) [4]: 15.92 (11.71)
UAS7 Post-baseline Mean (SD) (Omalizumab-Naïve Population, 400 mg BID, Week 5): 17.22 (13.36)
UAS7 Post-baseline Mean (SD) (Omalizumab-Naïve Population, 400 mg BID, Week 6): 17.02 (12.76)
UAS7 Post-baseline Mean (SD) (Omalizumab-Naïve Population, 400 mg BID, Week 7): 15.55 (11.97)
UAS7 Post-baseline Mean (SD) (Omalizumab-Naïve Population, 400 mg BID, Week 8): 13.98 (13.06)
UAS7 Post-baseline Mean (SD) (Omalizumab-Naïve Population, 400 mg BID, Week 9): 14.64 (14.43)
UAS7 Post-baseline Mean (SD) (Omalizumab-Naïve Population, 400 mg BID, Week 10): 15.22 (14.36)
UAS7 Post-baseline Mean (SD) (Omalizumab-Naïve Population, 400 mg BID, Week 11): 15.06 (13.80)
UAS7 % Change difference for rilzabrutinib vs. placebo LS Mean (95% CI) [5]: −17.85%
UAS7 % Change from baseline LS Mean (SE) [5]: −48.13 (6.91) %
UAS7 Change difference for rilzabrutinib vs. placebo LS Mean (95% CI) [5]: −4.09
UAS7 Change from baseline LS Mean (SE) [5]: −14.24 (2.06)
UAS7 Post-baseline Mean (SD) [5]: 15.61 (13.91)
UAS7 % Change difference for rilzabrutinib vs. placebo LS Mean (95% CI) [6]: −12.19%
UAS7 % Change from baseline LS Mean (SE) [6]: −21.67 (5.45) %
UAS7 Change difference for rilzabrutinib vs. placebo LS Mean (95% CI) [6]: −3.51
UAS7 Change from baseline LS Mean (SE) [6]: −7.06 (1.52)
UAS7 Post-baseline Mean (SD) [6]: 23.81 (8.78)
UAS7 % Change difference for rilzabrutinib vs. placebo LS Mean (95% CI) [7]: −6.60%
UAS7 % Change from baseline LS Mean (SE) [7]: −24.37 (5.29) %
UAS7 Change difference for rilzabrutinib vs. placebo LS Mean (95% CI) [7]: −1.81
UAS7 Change from baseline LS Mean (SE) [7]: −7.71 (1.52)
UAS7 Post-baseline Mean (SD) [7]: 23.44 (8.97)
UAS7 % Change difference for rilzabrutinib vs. placebo LS Mean (95% CI) [8]: −8.98%
UAS7 % Change from baseline LS Mean (SE) [8]: −28.93 (5.48) %
UAS7 Change difference for rilzabrutinib vs. placebo LS Mean (95% CI) [8]: −2.17
UAS7 Change from baseline LS Mean (SE) [8]: −9.10 (1.61)
